Data set [1] in a line: Apparent permeability across apical to basolateral side in human Caco2 cells assessed as drug recovery at 10 uM measured up to 2 hrs by ESI-LC/MS/MS analysis. The settings on record: Caco-2, read-out: Drug recovery. The format is ADME, cell-based.
The nature of data set [2]: Apparent permeability across basolateral to apical side in human Caco2 cells assessed as drug recovery at 10 uM measured up to 2 hrs by ESI-LC/MS/MS analysis. Type of data set: ADME, cell-based. The settings on record: Caco-2, read-out: Drug recovery.

For `Nc1ccc2ccc(CCNCCc3cccc(Cl)c3)cc2n1`, the recovery at 2 h, 10 µM in data set [1] stood at 63%; in data set [2], 103%.
